Results taken from ChEMBL document CHEMBL1124686.
Activity calls are given as the source filed them. The rule behind the calls is not given here.

Tests used:
[1] = target: D(2) dopamine receptor (Mus musculus) (UniProt P61168); experiment: Compound was evaluated for its ability to inhibit the potassium -induced release of [3H]- acetylcholine release in mouse striatal […] by stimulating D2 receptor; conditions: Striatum
[2] = target: D(2) dopamine receptor (Mus musculus) (UniProt P61168); experiment: The dissociation constant for the inhibition of agonist effect on the K+ evoked release of [3H]- acetylcholine in mouse striatal […]; NS means No statistically significant antagonism observed in […]; type: functional
[3] = target: D(2) dopamine receptor (Mus musculus) (UniProt P61168); experiment: Compound was evaluated for its ability to inhibit the potassium -induced release of [3H]- acetylcholine release in mouse striatal […] by stimulating dopamine receptor D2; conditions: Striatum
[4] = target: D(2) dopamine receptor (Mus musculus) (UniProt P61168); conditions: Striatum; Membrane
Description: Compound was evaluated for its ability to inhibit the potassium -induced release of [3H]- acetylcholine release in mouse striatal membranes by stimulating Dopamine receptor D2

Sequence of D(2) dopamine receptor (Mus musculus) (P61168 whole entry): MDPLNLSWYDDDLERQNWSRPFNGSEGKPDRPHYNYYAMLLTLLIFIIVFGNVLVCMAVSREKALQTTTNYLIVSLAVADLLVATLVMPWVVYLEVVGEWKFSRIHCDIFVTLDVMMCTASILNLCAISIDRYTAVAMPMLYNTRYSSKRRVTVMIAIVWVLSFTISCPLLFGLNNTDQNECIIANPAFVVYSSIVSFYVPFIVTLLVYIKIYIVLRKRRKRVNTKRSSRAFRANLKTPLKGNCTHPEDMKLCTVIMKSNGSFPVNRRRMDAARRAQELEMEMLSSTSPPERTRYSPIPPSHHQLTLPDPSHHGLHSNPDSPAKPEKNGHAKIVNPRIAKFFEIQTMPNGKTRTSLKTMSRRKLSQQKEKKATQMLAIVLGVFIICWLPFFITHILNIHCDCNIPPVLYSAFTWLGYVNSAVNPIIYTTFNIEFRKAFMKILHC

| ED50 [3] [nM] | Structure (SMILES) | other results |
| --- | --- | --- |
| 48.1 | COc1ccc(S(N)(=O)=O)cc1C(=O)NCC1CCCS1 (stereo unspecified) | Kb [2]: inactive |
| 25.1 | CC[N+]1(C)CCCC1CNC(=O)c1cc(S(N)(=O)=O)ccc1OC (stereo unspecified) | – |

Further lines, the molecule ahead of its results:

| Structure (SMILES) | ED50 [3] [nM] | other results |
| --- | --- | --- |
| CC[S+]1CCCC1CNC(=O)c1cc(S(N)(=O)=O)ccc1OC (stereo unspecified) | – | ED50 [1]: 38.4 nM |
| CCN1CCCC1CNC(=O)c1cc(S(N)(=O)=O)ccc1OC (stereo unspecified) | – | ED50 [4]: 75.9 nM |
| CC[N+]1(CC)CCCC1CNC(=O)c1cc(S(N)(=O)=O)ccc1OC (stereo unspecified) | 26.3 | – |
